From US9718820B2, “Substituted aza-bicyclic imidazole derivatives useful TRPM8 receptor modulators” (Janssen Pharmaceutica NV, priority 2010, dated 2017)

Experiments:
canine TRPM8 = canine TRPM8 (Canis lupus familiaris, UniProt Q1A7N1); test: In vitro canine TRPM8 functional assay (icilin-induced intracellular Ca2+ increase, FLIPR/FDSS); type: cell-based; details: 0.2 μM compound; icilin response in HEK293 cells stably expressing canine TRPM8
Protocol: The functional activity of representative compounds of the formula (I) of the present invention was quantified by measuring changes in intracellular calcium concentration using a Ca^2+-sensitive fluorescent dye. The changes in fluorescent signal were monitored by a fluorescence plate reader, either a FLIPR™ (Molecular Devices) or FDSS (Hamamatsu).
HEK293 cells stably expressing canine TRPM8 were routinely grown as monolayers in Dulbecco's minimum essential medium supplemented with 10% FBS, 2 mM L-glutamine, 100 units/mL penicillin, 100 ug/mL streptomycin and 400 μg/mL G418. Cells were maintained in 5% CO2 at 37° C. […] Cells were treated with compounds of the formula (I) at varying concentrations and intracellular Ca^2+ was measured for 5 min prior to the addition of icilin to each well to achieve a final concentration that produces an approximately 80% maximal response.
Maximal fluorescence intensity (FI) achieved upon addition of icilin was exported from the FLIPR™ or FDSS software and further analyzed using GraphPad Prism 3.02 (Graph Pad Software Inc., CA, U.S.A.). […] Finally, the EC50 and IC50 values were calculated with the best-fit curve determined by GraphPad Prism

TRPM8 channel = TRPM8 channel (Rattus norvegicus (Rat), UniProt Q8R455); test: Inhibition of icilin-induced "wet-dog" shakes in rats; type: in vivo; details: 10 mg/kg p.o. in 10% HP-β-CD, icilin 3.0 mg/kg i.p.
Protocol: Similar shaking or jumping behavior was also evident in mice, rabbits, cats, dogs and monkeys. In humans, icilin produced a sensation of coolness on contact with mucous membranes, cold prickling when 0.1 mg was dropped on the tongue and coldness in the mouth, pharynx and chest lasting 30-60 min when 5-10 mg was ingested orally (WEI, E. T., et al., “AG-3-5: a chemical producing sensations of cold”, J Pharm Pharmacol., 1983, pp 110-112, Vol. 35). The inhibition or reversal of icilin-induced shaking behaviors in rodents provides evidence for the engagement and functional blockade of the TRPM8 channel and thereby for the utility of TRPM8 antagonists in treating or preventing a disease or condition in a mammal in which the disease or condition is affected by the modulation of TRPM8 receptors.
Male Sprague Dawley rats (220-450 g, Charles River Labs, n=6-9/treatment) were used to evaluate the ability of test compounds to block icilin-induced “wet-dog” shakes (WDS). […] Icilin was then administered in 10% solutol/H2O, at 3.0 mg/kg, i.p., and spontaneous “wet-dog” shakes were counted 10 min following the icilin injection over a 10-min period.

Sequence of canine TRPM8 (Q1A7N1 1-1104): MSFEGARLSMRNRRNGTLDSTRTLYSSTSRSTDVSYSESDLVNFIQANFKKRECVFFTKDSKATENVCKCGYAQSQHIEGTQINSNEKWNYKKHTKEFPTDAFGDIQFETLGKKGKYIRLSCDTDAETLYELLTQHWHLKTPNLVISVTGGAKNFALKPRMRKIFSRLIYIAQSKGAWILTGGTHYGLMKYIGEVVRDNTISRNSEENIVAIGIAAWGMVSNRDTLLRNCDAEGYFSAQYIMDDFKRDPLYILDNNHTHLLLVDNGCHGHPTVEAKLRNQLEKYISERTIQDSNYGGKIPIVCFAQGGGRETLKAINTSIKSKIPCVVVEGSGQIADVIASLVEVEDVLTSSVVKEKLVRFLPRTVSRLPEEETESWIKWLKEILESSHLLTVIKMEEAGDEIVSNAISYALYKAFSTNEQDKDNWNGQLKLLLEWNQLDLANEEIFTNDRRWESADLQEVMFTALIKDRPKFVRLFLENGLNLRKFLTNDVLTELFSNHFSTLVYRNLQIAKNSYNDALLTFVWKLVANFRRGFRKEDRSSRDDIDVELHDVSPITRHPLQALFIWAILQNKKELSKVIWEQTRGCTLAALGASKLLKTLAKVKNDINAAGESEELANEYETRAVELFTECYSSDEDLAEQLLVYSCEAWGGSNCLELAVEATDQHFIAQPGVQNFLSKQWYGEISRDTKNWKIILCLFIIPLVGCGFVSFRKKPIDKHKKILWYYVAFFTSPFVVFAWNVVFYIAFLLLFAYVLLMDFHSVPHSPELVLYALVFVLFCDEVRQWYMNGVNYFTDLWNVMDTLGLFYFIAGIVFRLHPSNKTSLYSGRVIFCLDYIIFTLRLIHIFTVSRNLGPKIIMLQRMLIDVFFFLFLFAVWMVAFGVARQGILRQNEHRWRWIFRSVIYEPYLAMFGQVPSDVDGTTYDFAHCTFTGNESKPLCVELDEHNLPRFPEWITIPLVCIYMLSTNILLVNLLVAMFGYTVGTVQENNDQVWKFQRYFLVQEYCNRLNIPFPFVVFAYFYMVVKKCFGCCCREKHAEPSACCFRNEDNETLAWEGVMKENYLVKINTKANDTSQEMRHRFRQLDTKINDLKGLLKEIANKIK
Sequence of TRPM8 channel (Q8R455 whole entry): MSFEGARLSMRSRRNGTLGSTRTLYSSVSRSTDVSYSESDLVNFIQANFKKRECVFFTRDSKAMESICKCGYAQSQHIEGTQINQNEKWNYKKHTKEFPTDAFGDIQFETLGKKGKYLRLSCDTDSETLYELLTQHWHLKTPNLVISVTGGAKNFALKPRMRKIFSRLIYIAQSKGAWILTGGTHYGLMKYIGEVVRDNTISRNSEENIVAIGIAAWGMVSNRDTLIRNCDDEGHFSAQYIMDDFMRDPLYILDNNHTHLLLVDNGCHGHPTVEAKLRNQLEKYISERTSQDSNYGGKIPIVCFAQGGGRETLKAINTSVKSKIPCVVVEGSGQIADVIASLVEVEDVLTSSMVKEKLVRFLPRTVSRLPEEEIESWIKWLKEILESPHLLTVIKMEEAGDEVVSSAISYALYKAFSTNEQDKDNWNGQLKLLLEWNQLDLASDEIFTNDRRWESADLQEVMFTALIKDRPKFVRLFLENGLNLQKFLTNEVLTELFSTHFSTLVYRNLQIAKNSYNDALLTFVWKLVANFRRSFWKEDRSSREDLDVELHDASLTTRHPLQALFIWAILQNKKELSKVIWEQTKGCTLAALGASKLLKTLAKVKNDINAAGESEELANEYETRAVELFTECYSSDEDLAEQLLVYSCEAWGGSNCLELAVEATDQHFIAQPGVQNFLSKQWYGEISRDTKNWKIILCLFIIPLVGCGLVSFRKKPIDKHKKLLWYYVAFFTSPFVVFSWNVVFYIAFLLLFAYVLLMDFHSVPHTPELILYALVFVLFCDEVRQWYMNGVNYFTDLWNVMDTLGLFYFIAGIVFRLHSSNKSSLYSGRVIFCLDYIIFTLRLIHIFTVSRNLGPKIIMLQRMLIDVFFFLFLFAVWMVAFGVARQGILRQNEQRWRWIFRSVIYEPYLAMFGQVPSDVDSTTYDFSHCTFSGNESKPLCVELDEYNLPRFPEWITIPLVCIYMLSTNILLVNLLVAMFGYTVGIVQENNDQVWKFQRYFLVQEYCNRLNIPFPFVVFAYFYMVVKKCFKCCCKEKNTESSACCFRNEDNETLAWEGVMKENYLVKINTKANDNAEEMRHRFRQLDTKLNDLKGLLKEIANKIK

Row | Icilin % Inhibition @ 1.5 h, 10 mg/kg (TRPM8 channel) [%] | Structure (SMILES) | % Inh @ 0.2 μM (canine TRPM8) [%]
1 | – | Cn1nc(C(C)(C)C)c(Cl)c1-c1nc2nc(-c3ccccc3C(F)(F)F)cc(C(F)(F)F)c2[nH]1 [Compound 1] | 99
2 | 38 | COc1nc(-c2ccccc2Cl)cc2nc(-c3c(C#N)c(C(C)(C)C)nn3C)[nH]c12.CS(=O)(=O)O [Compound 17, 3-tert-Butyl-5-[6-(2-chloro-phenyl)-4-methoxy-3H-imidazo[4,5-c]pyridine-2-yl]-1-methyl-1H-pyrazole-4-carbonitrile methanesulfonic acid salt] | –
3 | – | Cn1nc(C(C)(C)C)c(Cl)c1-c1nc2nc(-c3ccccc3Cl)cnc2[nH]1 [Compound 110] | 99
